Laboratory results published in PMC8708875 (Pharmaceutics, 2021).

Key:
[1] = in vitro; assay type: in vitro ADME, mouse; settings: WT mice liver or kidney crude extracts; fragments sequenced by mass spectrometry after HPLC; data not shown
Protocol: Peptide hydrolyses were analyzed by reverse phase liquid chromatography (HPLC) using a C18 µBond-pak column (4.6 × 250 mm; Millipore Corp.) with a linear gradient of 5–65% acetonitrile in 0.1% TFA for 20 min at a flow rate of 1 mL/min, and absorbance monitored at a wavelength of 214 nm, as previously described. Cleaved peptide bonds were identified by mass spectrometry sequencing after isolating the cleavage fragments manually after HPLC, as previously described (data not shown). Control enzyme assays were conducted using bradykinin ([…]; 50 µM) as a standard substrate.

[2] = system: Erk and Akt phosphorylation in epididymal adipose and tibial muscle tissues; assay: Erk and Akt phosphorylation in tissues after ip administration to WT mice; assay type: in vivo, mouse; settings: 600 µg/kg ip, tissues collected 30 min after administration
Protocol: Western blotting experiments were performed to evaluate the expression levels of specific proteins. Briefly, cells or tissues as indicated were solubilized by directly adding RIPA buffer (50 mM Tris HCl, 150 mM NaCl, 1.0% v/v, NP-40, 0.5% w/v, sodium deoxycholate, 1.0 mM ethylenediamine tetraacetic acid, EDTA, 0.1% w/v, sodium dodecyl sulphate, SDS, and 0.01% w/v sodium azide, pH of 7.4) containing protease (P8340; Sigma Aldrich, Sao Paulo, Brazil) and phosphatase (P5726, Sigma Aldrich, Sao Paulo, Brazil) inhibitors cocktails, followed by sonication with a micro-tip for 5 s. After 30 min of incubation on ice, samples were centrifuged for 30 min at 12,000× g. Proteins from supernatants (50 µg) were separated by 10% SDS-PAGE and transferred to nitrocellulose membranes for immunoblotting with mouse monoclonal anti-phospho extracellular signal-regulated kinase 1/2 (anti-pErk; Erk 1/2 phosphorylation at Thr202-Tyr204; 1:1000; Cell Signaling, Boston, MA, USA), and rabbit polyclonal anti-total extracellular signal-regulated kinase 1/2 (Erk; anti-total Erk 1/2, 1:1000; Cell Signaling, Boston, MA, USA) antibodies. Blots were also treated with rabbit anti-phospho Akt (S473) (anti-pAkt, 1:1000) and mouse polyclonal anti-total Akt (anti-Akt, 1:1000) (Cell Signaling, Boston, MA, USA) and anti-myogenin (1:1000, Abcam, UK). Protein normalization indicated was performed using rabbit polyclonal anti-glyceraldehyde 3-phosphate dehydrogenase (GAPDH; 1:2000; Proteimax Biotechnology, São Paulo, Brazil) antibodies or anti-β-actin mouse antiserum (1:2000; Sigma Aldrich, Sao Paulo, Brazil). Blots were incubated with horseradish peroxidase-conjugated secondary antibodies for 3 h at room temperature. Western blot bands were visualized with Super-Signal West Pico Chemiluminescent substrate (Thermo Scientific) using the ChemiDoc™ MP Imaging System (BioRad, Hercules, CA, USA), and quantified using ImageJ 1.49 software. All results are expressed as the means ± standard error of the mean (SEM). The statistical comparisons were performed using Student’s t-test or analysis of variance (ANOVA), followed by ad-hoc Tukey’s test (n = 7). Data were statistically analyzed with GraphPad Prism software (GraphPad Software Inc, San Diego, CA, USA).
Figure 5 Western blotting for ERK and AKT in epididymal adipose and tibial muscle tissues following ip administration of Ric4 to WT mice. Mice were treated ip with vehicle (Control) or Ric4 (600 µg/kg). Tissues were collected 30 min after the Ric4 administration and processed for Western blots as detailed in Section 2.5. The phosphorylation of either ERK or AKT in epididymal adipose tissue (A,B) and tibial muscle tissue (C,D) were analyzed using antibodies anti-pErk (A,C) or anti-pAkt (B,D). […]

[3] = system: C57BL/6N (WT) mice; assay type: in vivo, mouse; settings: WT mice fasted 12 h, glucose 2 g/kg ip at time zero
Protocol: In vivo experiments were conducted with male C57BL/6N (WT) mice 12–16 weeks-old (University of São Paulo Medical School Animal Facility, SP, Brazil). Mice were maintained in individual ventilated cages (Amresco, SP, Brazil), under standardized conditions with an artificial 12 h dark–light cycle, with free access to standard chow (Nuvital Nutrientes S.A., Colombo, PR, Brazil) and drinking water ad libitum. The number of animals used was the minimum necessary to obtain statistically significant results and they were maintained and used in accordance with the guidelines of the National Council for Control of Animal Experiments (CONCEA), following international norms of animal care and maintenance. Thus, we hereby state that all experimental protocols were previously approved by University of São Paulo Ethic committee councils from Biomedical Science Institute (approval number for mice experimentation ICB/USP 22/2017).
WT mice were fasted for 12 h and blood samples were taken before and at 15, 30, 60, 90, and 120 min after the intraperitoneal (ip) injection of 2 g/kg glucose. Glycemia was measured using a glucometer (Accu-Check Performa, ROCHE, São Paulo, Brazil). Peptides were evaluated to affect glucose uptake either after ip or oral (by gavage) administration. After 20 min glucose was administrated (blood glucose levels reached 400 mg/dL), animals received ip or oral administration of either saline, insulin (0.75 IU/kg), or peptide (Ric2 or Ric4; 600 µg/kg). In addition, a group of animals received oral administration of either water or Ric2 or Ric4 (600 µg/kg). Glycemia was measured as indicated following vehicle, insulin, or peptide administration.

Question: For “LASVSTVLTSKYR [Ric4, intracellular peptide derived from hemoglobin alpha subunit, last 13 C-terminal amino acids]”, which “initial enzymatic cleavage site” value [1] is on record?
Answer: Leu8-Thr9 peptide bond

Question: What about the “Akt phosphorylation in epididymal adipose tissue” value [2] of the same sequence?
Answer: increased

Question: What about the “Akt phosphorylation in tibial skeletal muscle” value [2] of the same sequence?
Answer: not Akt phosphorylation

Question: What about the “Erk phosphorylation in epididymal adipose tissue” value [2] of the same sequence?
Answer: increased

Question: What about the “Erk phosphorylation in tibial skeletal muscle” value [2] of the same sequence?
Answer: increased

Question: And the “blood glucose levels in GTT, ip administration” value ([3]; peptide 600 µg/kg ip 20 min after glucose)?
Answer: rapidly induced a decrease in blood glucose levels

Question: And the “blood glucose levels in GTT, oral administration” value ([3]; peptide 600 µg/kg orally by gavage)?
Answer: decreased blood glucose levels
